Where a name gives a salt, the structure may show the parent alone. Read-outs that look alike come from different tables or passages of the source. Peptide text beside a SMILES is read from it. * marks the point of attachment. Cbz = O=C(OCc1ccccc1)*
Target: SARS-CoV-2 3CLpro (Severe acute respiratory syndrome coronavirus 2, UniProt P0DTD1)
Test: biochemical
Type: biochemical
Parameters: Replicate_1 / Replicate_2 / mean / mean (LOPAC_screen_w_protease): unit not given here
Conditions: for inhibition at 5 µM: 4 h
[1] = sheet LOPAC_screen_w_protease, LOPAC1280 primary screen with protease, 5 µM compound, mean of the two replicates, read-out: mean
[2] = sheet LOPAC_screen_w_protease, LOPAC1280 primary screen with protease, 5 µM compound, replicate 1, read-out: Replicate_1
[3] = sheet LOPAC_screen_w_protease, LOPAC1280 primary screen with protease, 5 µM compound, replicate 2, read-out: Replicate_2
[4] = LOPAC1280 primary screen with protease, 5 µM compound, replicate 1
[5] = LOPAC1280 primary screen with protease, 5 µM compound, replicate 2
[6] = sheet LOPAC_screen_w_protease, LOPAC1280 primary screen at 5 µM, with protease, mean of the two replicates
[7] = sheet LOPAC_screen_w_protease, LOPAC1280 primary screen at 5 µM, with protease, replicate 1
[8] = sheet LOPAC_screen_w_protease, LOPAC1280 primary screen at 5 µM, with protease, replicate 2
[9] = sheet LOPAC_screen_w_protease, primary screen with protease, 5 µM, mean of two replicates, read-out: mean
[10] = sheet LOPAC_screen_w_protease, primary screen with protease, 5 µM, replicate 1, read-out: Replicate_1
[11] = sheet LOPAC_screen_w_protease, primary screen with protease, 5 µM, replicate 2, read-out: Replicate_2

For Cc1oncc1C(=O)Nc1ccc(C(F)(F)F)cc1 [Leflunomide], the inhibition at 5 µM (sheet LOPAC_screen_w_protease, LOPAC1280 at 5 µM, mean of two replicates, read-out: mean) was 1.27%, the inhibition at 5 µM (sheet LOPAC_screen_w_protease, LOPAC1280 at 5 µM, replicate 1, read-out: Replicate_1) was 0.0888% and the inhibition at 5 µM (sheet LOPAC_screen_w_protease, LOPAC1280 at 5 µM, replicate 2, read-out: Replicate_2) was 2.44%.
With C=CCN1CC[C@]23CCCC[C@H]2[C@H]1Cc1ccc(O)cc13 [Levallorphan tartrate] the inhibition at 5 µM [1] was 4.19%, the inhibition at 5 µM [2] was 5.56% and the inhibition at 5 µM [3] was 2.81%.
CC[N+](C)(CC)CC(=O)Nc1c(C)cccc1C.[Cl-] [Lidocaine N-methyl hydrochloride] was tested, and the “mean (LOPAC_screen_w_protease)” value (LOPAC1280 primary screen with protease, 5 µM compound, mean of the two replicates) was 2.035, the “Replicate_1 (LOPAC_screen_w_protease)” value [4] was 4.235 and the “Replicate_2 (LOPAC_screen_w_protease)” value [5] was -0.1654.
O=C1N(c2ccccc2)c2ccccc2C1(Cc1ccncc1)Cc1ccncc1 [Linopirdine] was tested, and the inhibition at 5 µM [1] was 4.8%, the inhibition at 5 µM [2] was 4.31% and the inhibition at 5 µM [3] was 5.29%.
Work on [Cl-].[Li+] [Lithium Chloride] yielded a mean [6] of 0.7152, a Replicate_1 [7] of 0.8231 and a Replicate_2 [8] of 0.6073.
O=C(O)c1nn(Cc2ccc(Cl)cc2Cl)c2ccccc12 [Lonidamine] was tested, and the inhibition at 5 µM [9] was 0.331%, the inhibition at 5 µM [10] was 0.572% and the inhibition at 5 µM [11] was 0.0889%.
In the case of CN(C)C(=O)C(CCN1CCC(O)(c2ccc(Cl)cc2)CC1)(c1ccccc1)c1ccccc1 [Loperamide hydrochloride], the inhibition at 5 µM (sheet LOPAC_screen_w_protease, primary screen with protease, mean of two replicates, read-out: mean) is reported as 2.22%, the inhibition at 5 µM (sheet LOPAC_screen_w_protease, primary screen with protease, replicate 1, read-out: Replicate_1) is reported as 4.2% and the inhibition at 5 µM (sheet LOPAC_screen_w_protease, primary screen with protease, replicate 2, read-out: Replicate_2) is reported as 0.237%.
CCOC(=O)N1CCC(=C2c3ccc(Cl)cc3CCc3cccnc32)CC1 [Loratadine] showed an inhibition at 5 µM (sheet LOPAC_screen_w_protease, LOPAC1280 primary screen at 5 µM, with protease, mean of the two replicates, read-out: mean) of 0.729%, an inhibition at 5 µM (sheet LOPAC_screen_w_protease, LOPAC1280 primary screen at 5 µM, with protease, replicate 1, read-out: Replicate_1) of -0.189% and an inhibition at 5 µM (sheet LOPAC_screen_w_protease, LOPAC1280 primary screen at 5 µM, with protease, replicate 2, read-out: Replicate_2) of 1.65%.
Work on CCCCCN(CCCCC)C(=O)C(CCC(=O)O)NC(=O)c1ccc(Cl)c(Cl)c1 (centres unmarked) [Lorglumide sodium] yielded an inhibition at 5 µM (sheet LOPAC_screen_w_protease, primary screen of LOPAC1280 at 5 µM with protease, mean of the two replicates, read-out: mean) of 3.65%, an inhibition at 5 µM (sheet LOPAC_screen_w_protease, primary screen of LOPAC1280 at 5 µM with protease, replicate 1, read-out: Replicate_1) of 2.9% and an inhibition at 5 µM (sheet LOPAC_screen_w_protease, primary screen of LOPAC1280 at 5 µM with protease, replicate 2, read-out: Replicate_2) of 4.4%.
CN1CCN(C2=Nc3ccccc3Oc3ccc(Cl)cc32)CC1 [Loxapine succinate] was tested, and the inhibition at 5 µM [9] was -0.686%, the inhibition at 5 µM [10] was -0.577% and the inhibition at 5 µM [11] was -0.795%.
O=C(O)/C(=C/c1c(C(=O)O)[nH]c2cc(Cl)cc(Cl)c12)c1ccccc1 [MDL 105,519] showed a Replicate_1 of 2.708, a Replicate_2 of 5.657 and a mean of 4.183.
CC(C)[C@H](NC(=O)OCc1ccccc1)C(=O)N[C@H](C=O)Cc1ccccc1 [MDL 28170] (Cbz-Val-Phe-aldehyde) was tested, and the inhibition at 5 µM (read-out: Replicate_1 (LOPAC_screen_w_protease)) was 0.281% and the inhibition at 5 µM (read-out: Replicate_2 (LOPAC_screen_w_protease)) was 3.52%.
In the case of CC[N+](CC)(CC)CCOc1ccc(/C=C/c2ccccc2)cc1 [MG 624], the inhibition at 5 µM (sheet LOPAC_screen_w_protease, primary screen at 5 µM, mean of two replicates, read-out: mean (LOPAC screen with protease)) is reported as 11.8%, the inhibition at 5 µM (sheet LOPAC_screen_w_protease, primary screen at 5 µM, replicate 1, read-out: Replicate_1 (LOPAC screen with protease)) is reported as 10.3% and the inhibition at 5 µM (sheet LOPAC_screen_w_protease, primary screen at 5 µM, replicate 2, read-out: Replicate_2 (LOPAC screen with protease)) is reported as 13.3%.
For C1CNCCN1.COc1cc(C(O)CO)ccc1O.COc1cc(C(O)CO)ccc1O (centres unmarked) [MHPG piperazine], the Replicate_1 was 4.5396, the Replicate_2 was 3.9909 and the mean was 4.265.
COc1cc(C(O)CO)ccc1OS(=O)(=O)[O-].[K+] (centres unmarked) [MHPG sulfate potassium] was tested, and the mean [6] was 0.6725, the Replicate_1 [7] was 2.348 and the Replicate_2 [8] was -1.003.
CCCCCCCCCCCCCCCCOCC(COCC(F)(F)F)OP(=O)(O)OC (centres unmarked) [MJ33] was tested, and the Replicate_1 was 1.4444, the Replicate_2 was -0.2702 and the mean was 0.5871.
In the case of CC(C)c1ccc2c(c1)c(SC(C)(C)C)c(CC(C)(C)C(=O)O)n2Cc1ccc(Cl)cc1 [MK-886], the mean (sheet LOPAC_screen_w_protease, primary screen of LOPAC1280 at 5 µM with protease, mean of the two replicates) is reported as 3.5784, the Replicate_1 (sheet LOPAC_screen_w_protease, primary screen of LOPAC1280 at 5 µM with protease, replicate 1) is reported as 4.4392 and the Replicate_2 (sheet LOPAC_screen_w_protease, primary screen of LOPAC1280 at 5 µM with protease, replicate 2) is reported as 2.7176.
With CN1CC[C@]2(CCN3CCc4c(oc5ccccc45)[C@@H]3C2)N(C)C1=O [MK-912] the “mean (LOPAC_screen_w_protease)” value (LOPAC1280 primary screen with protease, 5 µM compound, mean of two replicates) was 1.637, the “Replicate_1 (LOPAC_screen_w_protease)” value [4] was 1.746 and the “Replicate_2 (LOPAC_screen_w_protease)” value [5] was 1.529.
Work on Cl.O=S(=O)(c1cccc2c(I)cccc12)N1CCCNCC1 [ML-7] yielded a Replicate_1 of 2.299, a Replicate_2 of 4.928 and a mean of 3.614.

Source: article PMC7587356, “High-Throughput Screening for Inhibitors of the SARS-CoV-2 Protease Using a FRET-Biosensor” (Molecules, 2020)
